The pIC50 is −log10 of the IC50, conventionally taken in molar units. One may read the inhibition as the drop in the measured response relative to a control, in per cent. Usually IC50 stands for the midpoint of a concentration-inhibition curve.

Structures are written as SMILES. pIC50: −log10 of the molar value. ≈ marks a conversion by molar mass, not a printed value.

The source of these data is ChEMBL document CHEMBL4376848, “Synthesis and discovery of triazolo-pyridazine-6-yl-substituted piperazines as effective anti-diabetic drugs; evaluated over dipeptidyl peptidase-4 inhibition mechanism and insulinotropic activities” (Eur J Med Chem, 2020).

For one data set, the system named is INS1(832/13). The experiment in a line: Cytotoxicity against rat INS1(832/13) cells assessed as cell viability upto 3 nM in RPMI medium incubated for over night followed by insulin addition by Alamar Blue assay. The format is cell-based.
Conditions: not given
Take `CCOC(=O)N1CCN(c2ccc3nnc(-c4cccc(C)c4)n3n2)CC1`: the Activity entry was “Non-Toxic”.

For the compound `Cc1cccc(-c2nnc3ccc(N4CCN(C(=O)c5ccccc5)CC4)nn23)c1`, the Activity entry is listed as “Non-Toxic”.

Another data set concerns INS1(832/13). In words: cells. The note with it: Rattus norvegicus, INS-1 832/13, 2 h.
Description: Antidiabetic activity in glucose-treated rat INS1(832/13) cells assessed as increase in insulin release in presence of 3 mM glucose measured after 2 hrs by radioimmunoassay
In turn, `CCOC(=O)N1CCN(c2ccc3nnc(-c4cccc(C)c4)n3n2)CC1` had a pIC50 of 8.55.

`CCOc1cc(CC(=O)N[C@@H](CC(C)C)c2ccccc2N2CCCCC2)ccc1C(=O)O` [REPAGLINIDE] showed a pIC50 of 5.90. This pIC50 lies 2.65 log units lower than the previous one.

Regarding `Cc1cccc(-c2nnc3ccc(N4CCN(Cc5ccc(F)cc5)CC4)nn23)c1`, the pIC50 is 8.41.

On to `Cc1cccc(-c2nnc3ccc(N4CCN(C(c5ccccc5)c5ccccc5)CC4)nn23)c1`, for which the pIC50 is 8.32.

For `Cc1cccc(-c2nnc3ccc(N4CCN(C(=O)c5ccccc5)CC4)nn23)c1`, the pIC50 is 8.82.

The test system of another data set is INS1(832/13). The experiment in a line: Antidiabetic activity in glucose-treated rat INS1(832/13) cells assessed as increase in insulin release at 1 ug/ml in presence of 3 mM glucose measured after 2 hrs by radioimmunoassay (reference value: 52.25 +/- 2.15 %). It is filed as functional.
Conditions: not given
Turning to `CCOc1cc(CC(=O)N[C@@H](CC(C)C)c2ccccc2N2CCCCC2)ccc1C(=O)O` [REPAGLINIDE], the “inhibition (INH)” value is 96.16%.

Tested on in a further data set: not listed separately
In words: Antioxidant activity assessed as inhibition of H2O2 radical scavenging activity incubated for 60 mins by UV-spectrophotometric method relative to control. It is filed as functional.
Conditions: not given
`CCOC(=O)N1CCN(c2ccc3nnc(-c4cccc(C)c4)n3n2)CC1`: the inhibition was determined as 96.8%.

In the case of `Cc1cccc(-c2nnc3ccc(N4CCN(CCOCCO)CC4)nn23)c1`, the inhibition was 83.2%.

Regarding `COc1ccc(N2CCN(c3ccc4nnc(-c5cccc(C)c5)n4n3)CC2)cc1`, the inhibition was found to be 75.6%.

In the case of `Cc1cccc(-c2nnc3ccc(N4CCN(Cc5ccccc5)CC4)nn23)c1`, the inhibition came out at 86.2%.

On to `Cc1cccc(-c2nnc3ccc(N4CCN(S(C)(=O)=O)CC4)nn23)c1`, for which the inhibition was 84.2%.

As for `Cc1cccc(-c2nnc3ccc(N4CCN(Cc5ccc(F)cc5)CC4)nn23)c1`, the inhibition was determined as 91.2%.

As for `Cc1cccc(-c2nnc3ccc(N4CCN(Cc5ccccc5)C(C(=O)O)C4)nn23)c1` (stereo unspecified), the inhibition was found to be 69.4%.

`Cc1cccc(-c2nnc3ccc(N4CCN(C(c5ccccc5)c5ccccc5)CC4)nn23)c1`: the inhibition was found to be 93.2%.

For `Cc1cccc(-c2nnc3ccc(N4CCN(CCN)CC4)nn23)c1`, the inhibition was found to be 78.2%.

Consider `Cc1cccc(-c2nnc3ccc(N4CCN(C(=O)OC(C)(C)C)C(Cc5ccccc5)C4)nn23)c1` (stereo unspecified), for which the inhibition amounted to 80.1%.

As for `CC(=O)N1CCN(c2ccc3nnc(-c4cccc(C)c4)n3n2)CC1`, the inhibition was 78.2%.

Take `Cc1cccc(-c2nnc3ccc(N4CCN(C(=O)c5ccccc5)CC4)nn23)c1`: the inhibition was determined as 94.1%.

For the next data set, the system named is INS1(832/13). The experiment in a line: Antidiabetic activity in glucose-treated rat INS1(832/13) cells assessed as increase in insulin release at 10 ug/ml in presence of 3 mM glucose measured after 2 hrs by radioimmunoassay (reference value: 52.25 +/- 2.15 %).
Conditions: not given
It is filed as functional.
With `CCOc1cc(CC(=O)N[C@@H](CC(C)C)c2ccccc2N2CCCCC2)ccc1C(=O)O` [REPAGLINIDE], the “inhibition (INH)” value was determined as 99.05%.

Tested on in a further data set: not listed separately
The experiment in a line: Antioxidant activity assessed as inhibition of H2O2 radical scavenging activity incubated for 60 mins by UV-spectrophotometric method. It is filed as functional.
Conditions: not given
`CCOC(=O)N1CCN(c2ccc3nnc(-c4cccc(C)c4)n3n2)CC1`: the IC50 amounted to 1 µg/mL (≈ 2.73 µM).

Consider `Cc1cccc(-c2nnc3ccc(N4CCN(CCOCCO)CC4)nn23)c1`, for which the IC50 was determined as 16.8 µg/mL (≈ 43.9 µM).

`O=C1O[C@H]([C@@H](O)CO)C(O)=C1O` [ASCORBIC ACID]: the IC50 was determined as 25.3 µg/mL (≈ 144 µM).

With `COc1ccc(N2CCN(c3ccc4nnc(-c5cccc(C)c5)n4n3)CC2)cc1`, the IC50 was found to be 45.9 µg/mL (≈ 115 µM).

As to `Cc1cccc(-c2nnc3ccc(N4CCN(Cc5ccccc5)CC4)nn23)c1`, the IC50 was found to be 13.4 µg/mL (≈ 34.9 µM).

As to `Cc1cccc(-c2nnc3ccc(N4CCN(S(C)(=O)=O)CC4)nn23)c1`, the IC50 amounted to 10.8 µg/mL (≈ 29 µM).

On to `Cc1cccc(-c2nnc3ccc(N4CCN(Cc5ccc(F)cc5)CC4)nn23)c1`, for which the IC50 was 2 µg/mL (≈ 4.97 µM).

Take `Cc1cccc(-c2nnc3ccc(N4CCN(Cc5ccccc5)C(C(=O)O)C4)nn23)c1` (stereo unspecified): the IC50 was 85.5 µg/mL (≈ 200 µM).

In the case of `Cc1cccc(-c2nnc3ccc(N4CCN(C(c5ccccc5)c5ccccc5)CC4)nn23)c1`, the IC50 is 1.75 µg/mL (≈ 3.8 µM).

Regarding `Cc1cccc(-c2nnc3ccc(N4CCN(CCN)CC4)nn23)c1`, the IC50 was found to be 25.4 µg/mL (≈ 75.3 µM).

`Cc1cccc(-c2nnc3ccc(N4CCN(C(=O)OC(C)(C)C)C(Cc5ccccc5)C4)nn23)c1` (stereo unspecified): the IC50 came out at 15.8 µg/mL (≈ 32.6 µM).

In the case of `CC(=O)N1CCN(c2ccc3nnc(-c4cccc(C)c4)n3n2)CC1`, the IC50 stood at 28.6 µg/mL (≈ 85 µM).

`Cc1cccc(-c2nnc3ccc(N4CCN(C(=O)c5ccccc5)CC4)nn23)c1`: the IC50 turned out to be 2.25 µg/mL (≈ 5.65 µM).

Another data set has as its system INS1(832/13). In words: Cytotoxicity against rat INS1(832/13) cells assessed as cell viability at 3.5 nM in RPMI medium incubated for over night followed by insulin addition by Alamar Blue assay. The format is cell-based. To be noted: 0.0035 µM. Background: The colour change of resazurin is a common sign of viable cells or microbes.
With `CCOC(=O)N1CCN(c2ccc3nnc(-c4cccc(C)c4)n3n2)CC1`, the Activity entry was “Toxic”.

`Cc1cccc(-c2nnc3ccc(N4CCN(C(=O)c5ccccc5)CC4)nn23)c1`: the Activity entry is on record as “Toxic”.
